Four compounds from article PMC10235985 (Proceedings of the National Academy of Sciences of the …, 2023) can be followed below.

Series [1] addresses T1, Nluc-NK1R (human NK1R) (Homo sapiens, UniProt P25103). The series can be described thus: NanoBRET saturation binding of TAMRA-NT analogs, membranes from HEK293T cells. As to conditions: read-out: Kd for Nluc-NK1R; pH 7.4, saturation binding.
The nature of series [2]: logD experiments, distribution between octanol and aqueous buffer. The format is physicochemical. As to conditions: octanol/phosphate buffer, pH 7.
Series [3] addresses T1, Nluc-NK1R (human NK1R). The series is described as follows: biochemical. Format: binding.
A short description of series [4]: pKa measurement by potentiometric titration. Format: physicochemical. The settings on record: 67% methanol aqueous solution.
Series [5] concerns the target T2, NK1R (Homo sapiens, UniProt P25103). The series is described as follows: ebBRET of SP-evoked mGαsq recruitment to early endosomes. Format: cell-based. As to conditions: antagonist 10 µM added after 5 min SP; one phase decay.
The target in series [6] is human NK1R-NP (Homo sapiens, UniProt P25103). The series can be described thus: NanoBiT-BRET. The format is cell-based. As to conditions: NT 30 min, n = 5. In general terms: Bioluminescence resonance energy transfer reports proximity on the nanometre scale.
Series [7] relates to hNK1R-407 mice. The series is described as follows: Capsaicin-evoked mechanical allodynia. Format: in vivo, mouse. As to conditions: 5 µL intrathecal; for duration of inhibition of capsaicin-evoked mechanical allodynia: 100 nM; for effect of higher dose on magnitude or duration of antinociception: 300 nM.
Series [8] addresses T2, NK1R. The series is described as follows: cell-based.
Series [9] has as its target T2, NK1R. The series can be described thus: Nuclear ERK activity, Nuc-EKAR FRET biosensor, HEK293T cells with human NK1R. Format: cell-based.
The subject of series [10] is spinal neurons in NK1R-407 mice. Details: species or system mouse. As to conditions: spinal cord slices.
The test system of series [11] is hNK1R-407, hNK1R-311, and wild-type mice. The series can be described thus: SP-evoked mechanical allodynia. The format is in vivo, mouse. The settings on record: AP 100 nM/5 µL coadministered with SP 1 µg/5 µL intrathecal; hNK1R-407, hNK1R-311, wild-type mice.

T2 sequence (P25103 whole entry): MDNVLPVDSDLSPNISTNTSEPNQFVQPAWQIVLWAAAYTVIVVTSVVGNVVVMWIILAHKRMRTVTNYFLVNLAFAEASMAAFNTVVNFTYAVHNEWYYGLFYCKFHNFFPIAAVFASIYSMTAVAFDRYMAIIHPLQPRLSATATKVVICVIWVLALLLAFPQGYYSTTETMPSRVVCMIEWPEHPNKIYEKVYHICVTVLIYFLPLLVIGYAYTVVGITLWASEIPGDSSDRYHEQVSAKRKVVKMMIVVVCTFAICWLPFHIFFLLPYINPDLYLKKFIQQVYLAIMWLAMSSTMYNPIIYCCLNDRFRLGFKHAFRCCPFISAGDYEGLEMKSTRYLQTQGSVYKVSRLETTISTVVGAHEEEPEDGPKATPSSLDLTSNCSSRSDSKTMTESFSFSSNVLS
T1 sequence (P25103 whole entry): as above
Sequence of human NK1R-NP (P25103 whole entry): as above

Usually Kd stands for the free concentration of one partner at which half of the binding sites on the other are occupied at equilibrium, for simple one-to-one binding. With “PS68: fluorescent tetramethylrhodamine (TAMRA) derivative of NT, also referred to as TAMRA-NT”, the Kd in series [1] came to 1.9 ± 0.39 nM.
On the same count and under the same terms, then “PS69: fluorescent TAMRA derivative of NT used as tracer in competition binding”, with 0.81 ± 0.065 nM.
The term logD denotes the decadic logarithm of the distribution of all forms, ionised or not, between an organic phase and buffer at a given pH. Higher therefore signals a more lipophilic compound. A word on the Ki: it is a dissociation constant, usually derived from enzyme kinetics or from competition with a known ligand. Low readings indicate higher affinity, high ones lower affinity. The pKa is the pH at which an ionisable group is half protonated. Low readings indicate a stronger acid or weaker base, high ones a weaker acid or stronger base. The IC50 is the concentration needed to halve the response being measured. A lower IC50 goes with greater potency in that assay. With `Cc1ccccc1-c1cc(N2CCN(C)CC2)ncc1N(C)C(=O)C(C)(C)c1cc(C(F)(F)F)cc(C(F)(F)F)c1` [NT, netupitant], the logD in [2] was 4.97. Moreover, the Ki in [3] (Binding affinity BRET (Nluc-NK1R) pKi at pH 6.0) is 0.851 nM; in series [3] (Ki (pH 7.4), pH 7.4, tracer PS69) it was 0.91 nM. The pKa in [4] was found to be 6.81. Further, the “Kinetics of inhibition Endosomal miniGαsq (ebBRET) k for 10 µM” value in series [5] is given as 0.14 ± 0.02 (9) min^−1. Moreover, the IC50 in series [6] (pIC50, inhibition of mGαsq recruitment to NK1R-NP at the plasma membrane (CAAX), CAAX, plasma membrane) was 6.46 nM; in series [6] (pIC50, inhibition of mGαsq recruitment to NK1R-NP in early endosomes (FYVE), FYVE, early endosomes) it was 20 nM; in series [8], 178 nM; in series [9], 257 nM. Further, the “duration of inhibition of capsaicin-evoked mechanical allodynia” value in series [7] amounted to 4 h. The “effect of higher dose on magnitude or duration of antinociception” value in [7] was “did not further increase the magnitude or duration of the antinociception”.
With `C[C@@H](O[C@H]1OCCN(Cc2n[nH]c(=O)[nH]2)[C@H]1c1ccc(F)cc1)c1cc(C(F)(F)F)cc(C(F)(F)F)c1` [AP, aprepitant], the “effect on SP-induced excitation of spinal neurons” value in series [10] is “prevented SP-induced excitation”. Further, the “effect on SP-evoked mechanical allodynia” value in series [11] is reported as “abolished”. Further, in series [7], the “duration of inhibition of capsaicin-evoked mechanical allodynia” value was found to be 2 h and the “effect of higher dose on magnitude or duration of antinociception” value is on record as “did not further increase the magnitude or duration of the antinociception”.
